From patent US5190919A, “Antihemostatic Factor VII peptides” (Board of Regents, The University of Texas System, priority 1989, dated 1993) come the findings set out here.

Assay [1] deals with Factor VII-tissue factor complex. In words: Rate of Factor X activation, two-stage chromogenic (amidolytic) assay with purified proteins. In kind it is biochemical, human. The conditions noted are these: for Factor Xa Formation (% of Control Rate): 200 μM of each synthetic peptide, amidolytic assay, purified proteins; for Dose-dependent inhibition of the rate of Factor Xa formation / Factor VII activity: result in words. On the procedure: (§1) 3. Rate of Factor X activation: The effect of the synthetic peptides on the rate of activation of Factor X was analyzed in a purified system employing chromogenic assays. For the inhibition experiments, peptides were diluted in 20 mM Tris-HCl, 150 mM NaCl, pH 7.4 (TBS) and preincubated with 10 microliters each of Factor X (180 nM) and tissue factor (0.075%) at 37 degrees Centigrade in a total volume of 140 microliters adjusted with TBS containing 1% bovine serum albumin (BSA) and 5 mM CaCl2. After 30 minutes, Factor X activation was initiated by the addition of 10 microliters of Factor VII (2 pM). At defined timed intervals, 20 microliter aliquots were removed and added to a microtiter plate containing 80 microliters of 50 mM Tris-HCl, 225 mM NaCl and 10 mM EDTA, pH 8.2. Following sample collection, 50 microliters of 0.6 mM chromogenic substrate was added and the rate of change in the absorbance at 405 nm was monitored for 10 minutes using a Vmax Kinetic Microplate Reader (Molecular Devices, Inc., Palo Alto, Calif.). The rate of Factor Xa formation was calculated from the slope of linear regression of data plotted as a function of the initial rate of hydrolysis (OD405 /min) versus time and expressed as OD405 /min^2.
(§2) 5. Inhibition assays: The inhibition of Factor VII function was determined in the two-stage chromogenic assay described in Example I-A, 3. The peptides were initially screened at 200 μM added concentration. To determine the concentration of peptide required to inhibit the rate of Factor X activation by 50% (CI50), peptides at various concentrations or buffer (TBS-BSA) were incubated with their respective complexes. Following the addition of Factor VII, the rate of Factor Xa generation was determined and the percent of Factor X activation in the presence of different concentrations of Factor VII peptides relative to buffer controls was calculated. Analogous determinations of the CI50 values were measured in the specific coagulation assay outlined above. Factor VII activity in the presence of varying concentrations of peptide was measured by comparing the clotting times to a standard curve constructed from the log of the clot time versus the log of Factor VII concentration in the same incubation mixtures described for the peptides.
(§3) Kinetic analysis of multiple inhibitors known to be noncompetitive in nature was conducted holding the concentration of the first inhibitory peptide constant and varying the concentration of a second inhibitory peptide. The analysis for mutual exclusivity of the inhibitory peptides employed the methods adapted from Segel (12). […] Regression lines which intersect with one another indicate mutual non-exclusivity of one peptide to another, i.e. tested peptides act as regions which are spatially separate from one another.
(§4) Factor VII function results from a two-step mechanism. First, Factor VII must associate with tissue factor in order to form the active macromolecular complex and second, Factor VII activity within the macromolecular complex can be measured by the conversion of substrate to product, e.g. activation of Factor X. The peptides of the present invention were tested for their ability to inhibit Factor X activation by employing the two-stage chromogenic assay described in Example I-A, 3. Inhibition of Factor X activation measured by this assay detects both of the steps stated for Factor VII function. To verify the inhibitory effect of the synthetic peptides, each of the components were titrated. […] Factor X was titrated against the preformed Factor VII-tissue factor complex in the presence of at least 10^4 molar excess of each peptide. Selected peptides were inoubated with tissue factor and Factor X for 30 minutes at […] before the addition of Factor VII. This preincubation time was sufficient for the peptides to reach equilibrium with the target protein (13). […]

The target of assay [2] is T1, Factor VII-tissue factor complex (Homo sapiens, UniProt P08709+P13726).
T1 construct: Factor VII/VIIa (6), Factor X (7), and Factor Xa (8) were isolated as previously reported; Tissue factor was prepared from human brain as described (9); from tissue; host or cells: Tissue factor from human brain (gift of Dr. J. H. Morrissey)
Described as above. The format is biochemical. As to conditions: for IC50: derivatives of peptide 194-214 (FIG. 4), read-out: Apparent CI50, rate of Factor Xa formation. On the procedure:
as §1, §2, §3, §4

For a further assay, the target named is T2, Factor VII (Homo sapiens, UniProt P08709).
T2 construct: Factor VII/VIIa (6), Factor X (7), and Factor Xa (8) were isolated as previously reported
T2 sequence (P08709 61-466): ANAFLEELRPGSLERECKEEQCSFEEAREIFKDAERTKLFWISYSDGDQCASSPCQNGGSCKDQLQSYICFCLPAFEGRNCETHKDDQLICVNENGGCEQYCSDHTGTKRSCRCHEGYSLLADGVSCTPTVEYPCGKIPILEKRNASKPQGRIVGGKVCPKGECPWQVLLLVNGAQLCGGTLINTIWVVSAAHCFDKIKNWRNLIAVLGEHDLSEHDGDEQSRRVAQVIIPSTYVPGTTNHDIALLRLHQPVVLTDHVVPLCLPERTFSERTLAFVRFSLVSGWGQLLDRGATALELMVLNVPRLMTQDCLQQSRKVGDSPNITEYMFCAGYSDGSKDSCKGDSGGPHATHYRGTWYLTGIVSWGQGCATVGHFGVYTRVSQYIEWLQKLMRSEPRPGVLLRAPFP
In words: Two-stage clotting assay specific for Factor VII function in Factor VII-depleted plasma. In kind it is biochemical. The conditions noted are these: for IC50: Table 2, Factor VII-depleted plasma, tissue factor, read-out: Concentration for 50% Inhibition, VIIa Coagulant Activity. How it is done:
4. Coagulation assays: The effect of the synthetic peptides and antibodies to them on Factor VII coagulation activity was determined using two-stage clotting assays specific for Factor VII function.
Synthetic peptides were individually preincubated with 20 μl each of plasma immunochemically depleted of Factor VII and 0.25% tissue factor at 37 degrees Centigrade in a total volume of 190 μl adjusted with TBS containing 1% BSA and 5 mM CaCl2. At the end of 30 minutes, coagulation was initiated by the addition of 10 μl of Factor VII (1 nM). The time for clot formation was measured using a Fibrometer (BBL, Cockesysville, Md.). Factor VII activity in the presence of varying concentrations of peptide was quantitated by comparing their clotting times to a standard curve constructed from the log of the clot time versus the log of a known amount of Factor VII in the same reaction mixture without added peptide.
as §2, with “To determine the concentration of peptide required to inhibit the rate of Factor X activation by 50% (CI50), peptides at various concentrations or buffer (TBS-BSA) were incubated with their respective complexes.” left out
Based on the results of the chromogenic assays, three peptides, 208-229, 285-305 and 276-390, were selected for further study for their ability to inhibit a coagulation-based assay designed to measure Factor VII activity. […] After Factor VII was added, the time of clot formation was determined and quantitated.

The mark [3] stands for this setting: Table 4, derivatives of inhibitory peptides, read-out: CI50, concentration of peptide inhibiting the rate of Factor Xa activation by 50%.

A word on the Ki: it is the equilibrium dissociation constant of an inhibitor or competing ligand from its target.

Like-named read-outs stand apart in the source and are kept apart here. Ends that are not written are not given here.

T1 sequence (P13726 33-295, one chain of several): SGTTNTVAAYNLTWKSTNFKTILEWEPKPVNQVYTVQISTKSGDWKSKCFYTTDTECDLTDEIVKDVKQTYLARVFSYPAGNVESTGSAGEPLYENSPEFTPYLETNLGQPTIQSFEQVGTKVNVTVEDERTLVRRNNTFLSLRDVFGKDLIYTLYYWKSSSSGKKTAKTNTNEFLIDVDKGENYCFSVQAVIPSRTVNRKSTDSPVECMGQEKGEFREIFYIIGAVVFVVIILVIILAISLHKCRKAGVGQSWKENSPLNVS

For GKVCPKGEC [Peptide 156-164], in assay [1], the “Factor Xa Formation (% of Control Rate)” value was 97 % of Control Rate.

Take “AVLGEHDLSEHDG [Peptide 206-218, AVLGEHDLSEHDG]”: the IC50 in assay [2] is about 50 µM.

Regarding “RNLIAVLGEHDLSE [Peptide 202-214, RNLIAVLGEHDLSE]”, the IC50 in assay [1] (setting [3]) was 205 µM.

Turning to “LGEHDLSEHDGDEQSRRVAQVIGC-NH2 [Peptide 208-229]”, the IC50 at Factor VII is 225 µM; in assay [2], about 50 µM.

Consider “PRLMTQDCLQQSRKVGDSPNITEYMFC [Peptide 303-329]”, for which, in assay [1], the “Factor Xa Formation (% of Control Rate)” value is 92 % of Control Rate.

On to “VYTRVSQYIEWLQKL-NH2 [Peptide 376-390, VYTRVSQYIEWLQKL]”, for which, on Factor VII, the IC50 amounted to 172 µM.

In the case of “GEHDLSEHDGDEQ [Peptide 209-221, GEHDLSEHDGDEQ]”, the IC50 in assay [2] was about 70 µM.

With “CFDKIKNWRNLIAVLGEHDLS-NH2 [Peptide 194-214]”, in assay [2], the IC50 was about 70 µM.

In the case of “GQLLDRGATALELMVLNVPRLGC-NH2 [Peptide 285-305]”, the “Inhibition of clot formation” value at Factor VII (varying peptide concentrations (FIG. 7)) was “inhibited clot formation in a dose-dependent manner”. Besides, in assay [1] (9.5 μM peptide, varying Factor X concentration (FIG. 1)), the “Reduction of the rate and extent of Factor X activation” value is “about 50%”. In assay [1], the “Factor Xa Formation (% of Control Rate)” value is on record as 0 % of Control Rate and the “Dose-dependent inhibition of the rate of Factor Xa formation / Factor VII activity” value is recorded as “significantly inhibit the rate of Factor Xa formation in a dose-dependent manner”. The “Inhibition of the rate of Factor Xa formation relative to control reactions” value in assay [1] (200 μM peptide) was “completely inhibited”. The “Mixed inhibition, mutual exclusivity of peptides 209-221 and 285-305” value in assay [1] (Dixon plots, 285-305 at 0, 1.5, 3.0 μM (FIG. 6B), lines intersect above abscissa) was “lack of mutual exclusively”. Further, in assay [1] (FIG. 2), the “Concentration for 50% inhibition, fold less than that for peptide 44-50, 194-214, 208-229 or 376-390” value lay within 15 to 20 fold; the “Concentration for 50% inhibition, fold less than that seen with peptides 170-178 and 330-340” value is on record as 75 to 100 fold. Also, the IC50 in assay [1] (Table 2, read-out: Concentration for 50% Inhibition, Rate of Factor Xa Formation) worked out at 3 µM. In assay [1] (setting [3]), the IC50 worked out at 3 µM. Further, the inhibition constant Ki in assay [1] (from Dixon plots of the rate of Factor Xa formation, three Factor X concentrations, read-out: Ki, peptide inhibition constants for Factor VII activity) came out at 2.8 ± 0.4 µM.

In the case of “193-203: Factor VII region II synthetic peptide used in mixed inhibition; possibly the 196-203 of Table 4 (YPCGKIPILEK; UniProt P08709 193-203, looked up, fragment) [Peptide 193-203]”, in assay [2] (Dixon plots, 193-203 at 0, 14, 28 μM (FIG. 6A), parallel regression lines), the “Mixed inhibition, mutual exclusivity of peptides 209-221 and 193-203” value is listed as “mutually exclusive”.

On to “R-T-K-L-F-W-I-S-Y-S-D-G-D-Q-C (RTKLFWISYSDGDQC) [Peptide 36-50]”, for which, in assay [1], the “Dose-dependent inhibition of the rate of Factor Xa formation / Factor VII activity” value is “significantly inhibit the rate of Factor Xa formation in a dose-dependent manner”.
